From paper PMC6691761, “Potential multifunctional agents with anti-hepatoma and anti-inflammation properties by inhibiting NF-кB activation” (Journal of Enzyme Inhibition and Medicinal Chemistry, 2019)

How the values were obtained:
[1] = tested on: human breast cancer cells (MCF-7); test: Cytotoxicity, MTT assay, MCF-7; type: cell-based
Source text: (§1) Compounds 83–102 were screened against human neoplastic cell lines, such as human breast cancer cells (MCF-7), human colon cancer cells (HCT116), human lung carcinoma cells (A549), human gastric adenocarcinoma cells (SGC7901), human liver hepatocellular carcinoma cell line (HepG2), human cervical carcinoma cells (HeLa), human acute mononuclear granulocyte leukaemia (THP-1), and human normal hepatic cell line (LO2) using modified MTT assay. All the cells were obtained from the American Type Culture Collection (ATCC, Manassas, VA). The cells were cultured in DMEM or 1640. Positive controls (Doxorubicin (DOX) and Curcumin) and BAPs were initially dissolved in dimethyl sulphoxide (DMSO). Experimental concentration of DMSO was always 0.1% (v/v). The concentrations of BAPs and positive controls were 50, 20, 10, 5, 2.5, 1, 0.5, 0.1, 0.05, and 0.01 μg/mL.
(§2) The cells (1 × 10^4 cells/well) were seeded in a 96-well plate and incubated for 24 h. Cells treated with serial concentrations of drugs were incubated for another 24 h. After the media removed, 20 μL of MTT (5 mg/mL) solution was added and incubated for 4 h at 37 °C. The MTT solution was removed and then 150 μL of DMSO was added. The optical density was measured with a multi-well plate reader (TECAN, Mӓnnedorf, Switzerland) at 570 nm. The results are expressed as a decrease in the cell viability (%) in comparison to untreated controls. The concentration of each compound was examined in triplicate, and the IC50 values are expressed in Table 1.

[2] = tested on: human colon cancer cells (HCT116); test: Cytotoxicity, MTT assay, HCT116; type: cell-based
Source text: as §1, §2

[3] = tested on: human lung carcinoma cells (A549); test: Cytotoxicity, MTT assay, A549; type: cell-based
Source text: as §1, §2

[4] = tested on: human gastric adenocarcinoma cells (SGC7901); test: Cytotoxicity, MTT assay, SGC7901; type: cell-based
Source text: as §1, §2

[5] = tested on: human liver hepatocellular carcinoma cell line (HepG2); test: Cytotoxicity, MTT assay, HepG2; type: cell-based
Source text: as §1, §2

[6] = tested on: human cervical carcinoma cells (HeLa); test: Cytotoxicity, MTT assay, HeLa; type: cell-based
Source text: as §1, §2

[7] = tested on: human acute mononuclear granulocyte leukaemia (THP-1); test: Cytotoxicity, MTT assay, THP-1; type: cell-based
Source text: as §1, §2

[8] = tested on: human normal hepatic cell line (LO2); test: Toxicity to normal cells, MTT assay, LO2; type: cell-based; conditions: Homo sapiens, 24 h
Source text: as §1, §2

HepG2 xenografts [9] = test: HepG2 xenografts growth in nude mice; type: in vivo, Balb/c nude mice; conditions: 1.0 mg/kg intraperitoneally every 2 d for 20 days
Procedure: (§3) The HepG2 cells xenografts were established using the Balb/c nude mice (female, 7-week-old, 17–19 g, n = 30) (Shanghai Laboratory Animal Center, Shanghai Shi, China) were used to investigate the anti-hepatoma effect of 96. Animal experiments were reviewed and approved by the Binzhou Medical University Experimental Animal Committee. Briefly, HepG2 cells (1 × 10^7/0.2 ml PBS/mouse) were inoculated subcutaneously. Three days after the inoculation, the mice were randomly divided into five groups: the saline treated group (Control), 96 (0.2 mg/kg) group, 96 (1.0 mg/kg) treated group, 96 (5.0 mg/kg) treated group, and DOX (1.0 mg/kg) treated group. 96 were dissolved in saline containing 1% of DMSO and administered intraperitoneally every 2 d for 20 days. DOX was also administered intraperitoneally every 2 d for 20 d. The body weight and HepG2 xenografts volumes were recorded from the day of treatment, and xenografts volumes were calculated using the equation: tumour volume = length×(width)[2]×π/6. At the end of the experiment, mice were sacrificed and the xenografts were obtained for western blotting, HE staining and immunohistochemistry staining.

HepG2 xenografts [10] = test: HE staining of HepG2 xenografts; type: in vivo, Balb/c nude mice
Procedure: as §3
The HepG2 xenografts tissues were embedded using the paraffin, and sectioned for HE staining and immunohistochemistry staining. HE staining was performed routinely. The immunohistochemistry staining carried out as following. Briefly, the processed sections were incubated with the primary antibodies: Bcl-2 and TNF-α (NOVUS BIOLOGICALS) at 4 °C overnight. After washing, the anti-rabbit peroxidase-conjugated secondary antibody (Sigma-Aldrich, St. Louis, MO) was incubated for 1 h at RT. After washing with PBS, the cells were visualized using the 3,3'-diaminobenzidine (DAB) solution under the light microscope. The cell images were taken using a light microscopy (Olympus, Tokyo, Japan).

[11] = tested on: Bcl-2 expression in HepG2 xenografts; test: Immunohistochemistry staining of Bcl-2 in HepG2 xenografts; type: in vivo, Balb/c nude mice; conditions: 96 5.0 mg/kg, DOX 1.0 mg/kg, versus model group
Procedure: as §3
(§4) The HepG2 xenografts tissues were embedded using the paraffin, and sectioned for HE staining and immunohistochemistry staining. HE staining was performed routinely. The immunohistochemistry staining carried out as following. […]

[12] = tested on: TNF-α expression in HepG2 xenografts; test: Immunohistochemistry staining of TNF-α in HepG2 xenografts; type: in vivo, Balb/c nude mice; conditions: 96 5.0 mg/kg, DOX 1.0 mg/kg, versus model group
Procedure: as §3, §4

[13] = quotient of IC50 towards LO2 cells

COc1cccc2c1C(=O)c1c(O)c3c(c(O)c1C2=O)C[C@@](O)(C(=O)CO)C[C@@H]3O[C@H]1C[C@H](N)[C@H](O)[C@H](C)O1 [DOX, Doxorubicin, reference compound]
IC50 ([1]; Homo sapiens, MCF7, MTT, 24 h): 2.8 ± 0.7 µM
MCF-7 SI (selectivity index) [1, 13]: 1.7
IC50 ([2]; Homo sapiens, HCT-116, MTT, 24 h): 3.5 ± 0.1 µM
HCT116 SI (selectivity index) [2, 13]: 1.3
IC50 ([3]; Homo sapiens, A549, 24 h, MTT, 24 h): 3.4 ± 0.4 µM
A549 SI (selectivity index) [3, 13]: 1.4
IC50 ([4]; Homo sapiens, SGC-7901, MTT, 24 h): 3.3 ± 0.5 µM
SGC7901 SI (selectivity index) [4, 13]: 1.4
IC50 ([5]; Homo sapiens, HepG2, 24 h, MTT, 24 h): 1.2 ± 0.1 µM
HepG2 SI (selectivity index) [5, 13]: 3.9
IC50 ([6]; Homo sapiens, HeLa, MTT, 24 h): 7 ± 0.3 µM
HeLa SI (selectivity index) [6, 13]: 0.7
IC50 ([7]; Homo sapiens, THP-1, 24 h, MTT, 24 h): 9.5 ± 0.8 µM
THP-1 SI (selectivity index) [7, 13]: 0.5
IC50 [8]: 4.7 ± 0.7 µM
Growth of HepG2 xenografts (HepG2 xenografts [9]): significantly inhibited the growth of HepG2 xenografts
Fracted cells, HE staining (HepG2 xenografts [10]; 96 5.0 mg/kg, DOX 1.0 mg/kg): a plenty of fracted cells
Histopathological change of cell nucleus, HE staining (HepG2 xenografts [10]; HepG2 xenografts, versus model group): made the HepG2 cell nucleus wrinkled
Bcl-2 expression, immunohistochemistry [11]: significantly reduced
TNF-α expression, immunohistochemistry [12]: significantly reduced
